pIC50: −log10 of the molar value.
Target: Bcl-2-related protein A1 (Mus musculus) (UniProt Q07440)
Test: Bfl-1 inhibitors blocking BH3 peptide binding, confirmation, biochemical, TR-FRET, mouse Bfl-1 (AID 621)
Conditions: TR-FRET Bfl-1 BH3 peptide binding displacement

Chain of Bcl-2-related protein A1 (Mus musculus) (Q07440 whole entry, looked up): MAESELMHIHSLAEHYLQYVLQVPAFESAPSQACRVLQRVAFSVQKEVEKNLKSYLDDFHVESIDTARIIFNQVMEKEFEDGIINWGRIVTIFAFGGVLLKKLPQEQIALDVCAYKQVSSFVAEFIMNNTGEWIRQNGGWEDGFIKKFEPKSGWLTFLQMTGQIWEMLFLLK

Row | pIC50 | Compound
1 | 4.84 | CCn1c(SCC(=O)O)nc2sc3c(c2c1=O)CCC3
2 | 5.46 | Nc1ccc2ncccc2c1N

From PubChem BioAssay AID621 (Sanford-Burnham Center for Chemical Genomics, 2007)
